According to patent US5328921A, “Aryl pyridinium compounds which are useful in treating shock” (American Cyanamid Company, priority 1992, dated 1994):
Several values for one entry are separate records, joined by “and”; a condition that tells them apart may be missing. Identical values can stand only once. Counter-ions that a name gives are not always drawn.

What was measured:
[1] = system: PAF induced lethality in mice; assay: PAF induced lethality in mice; format: in vivo; settings: 0.5 mg/kg IP 1/2 hour before lethal PAF I.V. challenge, alive after 2 hours, control (saline) 10; for responders at 0.5 mg/kg: Mus musculus, read-out: % Survival
Experimental: PAF given I.V. to mice causes an immediate hypotensive shock leading to death in 1 hour or less. Compounds are given intraperitoneally at 1/2 hour prior to the PAF challenge. Animals alive after 2 hours are counted and the activity of test compounds expressed as survival corrected for any control (saline treated) animals which survived the PAF challenge.

[2] = target: T1, PAF receptor (Oryctolagus cuniculus, UniProt G1TEI7); assay: In vitro PAF antagonism: inhibition of PAF induced platelet aggregation in rabbit platelet rich plasma; format: cell-based, rabbit (male New Zealand White); settings: rabbit PRP; for % INH (% of inhibition of PAF induced platelet aggregation): Dose 1.00E-05 M
T1 construct: centrifuged at 800 rpm for 10-15 minutes at room temperature to recover the platelet rich plasma (PRP); endogenous in cells; host or cells: rabbit platelets (platelet rich plasma from citrated blood of male New Zealand White rabbits)
T1 sequence (G1TEI7 1-342): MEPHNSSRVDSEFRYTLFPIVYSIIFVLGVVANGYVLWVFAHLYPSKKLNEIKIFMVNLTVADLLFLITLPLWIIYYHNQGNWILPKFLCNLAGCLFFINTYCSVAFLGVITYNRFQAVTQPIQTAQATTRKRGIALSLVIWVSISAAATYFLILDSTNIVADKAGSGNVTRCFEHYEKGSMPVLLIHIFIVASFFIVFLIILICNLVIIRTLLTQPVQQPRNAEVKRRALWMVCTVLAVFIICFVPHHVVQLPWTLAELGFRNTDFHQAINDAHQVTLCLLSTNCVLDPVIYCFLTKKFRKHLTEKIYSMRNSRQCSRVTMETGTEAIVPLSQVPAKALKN
Experimental: Test compounds are evaluated as PAF receptor antagonists in vitro by measuring inhibition of PAF (platelet activating factor) induced platelet aggregation. Platelet aggregation is measured by a modification of the method described in A. Wissnet, et. al., J. Med. Chem., 27 1174, 1984.
Approximately 120-240 ml of blood is collected by cardiac puncture from unanesthetized male New Zealand White rabbits (Whaley's Summit View Farms, Belvedere, N.J.) with the use of 3.2% sodium citrate anticoagulant (1 part of citrate/10 parts of blood). All syringes and pipers are plastic. The blood is gently mixed and immediately centrifuged at 800 rpm for 10-15 minutes at room temperature to recover the platelet rich plasma (PRP). Platelet poor plasma (PPP) is prepared by centrifuging PRP at 2800 rpm for 10 minutes at room temperature.
Dilutions (113000) of PRP in Isoton, diluent are made and platelet counts are determined on a Coulter Thrombocounter which is standardized with platelet reference standards (Interscience Platelet Control, Portland, Oreg.). PRP platelet counts are adJusted to approximately 400,000-500,000 platelets/11 by the addition of PPP.
L-PAF (Platelet Activating Factor) is obtained from Calbiochem. A stock solution of 1-2 E-3M is prepared in 10% ethanol in water or 100% methanol and serial working dilutions are made using saline. E-3M stock solutions of test compounds are prepared in 100% methanol and serially diluted in PBS. Sonication of samples before testing in biological screens assists in the solubility of compounds in the liquid medium. All solutions are made up in plastic tubes, stored on ice and protected from heat and light. Solutions are prepared fresh or frozen at -20° C. and used within 48 hours.
Incubation mixtures consisted of 400 11 PRP, 50 11 of saline diluent or test compound and 50 11 of PAF agohist. More specifically, 40011 of PRP is stabilized in a cuvette for 1-2 minutes at 37° C. in the aggregometer to achieve a stable baseline, then 50 11 of saline or test compound is added and incubated for 5 minutes before addition of the challenge concentration of PAF. A submaximal concentration is determined from the dose response curve for PAF for that experiment. In general, the challenge concentration is 5E-8 or 1E-7M. Aggregation is monitored for 5 minutes. Samples containing test compound or diluent are run simultaneously for comparison. Test compounds are initially evaluated at a screening concentration of 1E-SM.
The recording equipment consists of a dual channel Chronolog aggregometer connected to a dual channel 10MV full scale deflection Omniscribe chart recorder (Houston Instruments). The chart recorder is calibrated daily with the use of a suspension of Bio-Rad latex beads (S-X 12 400 mesh) which has a density slightly greater than rabbit PRP. The bead suspension is used to set the 0% light transmission mark and clear water is used to set the 100% light transmission mark. These limits defined a full scale deflection. The aggregation traces are analyzed by a digitizing method (C. Kohler and B. Zoltan, J. Pharm. Methods, 12, 113, 1984) with x, y coordinate data stored in a computer file. A suitable program computes parameters of interest such as the magnitude of aggregation.

Compound	IC50 ([2]; PAF challenge 5.00E-08 M)	responders at 0.5 mg/kg [1] [%]	further results
2-[[Acetyl[[4-(tetradecyloxy)-benzoyl]methyl]amino]methyl]-1-ethylpyridinium iodide			% Survival [1]: 40%
CCCCCCCCCCCCCCCCOc1ccc(OCC(=O)NCCc2cccc[n+]2CC)cc1 [1-Ethyl-2-[2-[[[4-(hexadecyloxy)phenoxy]acetyl]-amino]ethyl]pyridinium iodide]	2.7 µM and 3.2 µM		IC50 ([2]; PAF challenge 1.00E-07 M): 4.64 µM
CCCCCCCCCCCCCCCCOc1ccc(OCC(=O)NCc2cccc[n+]2CC)cc1 [1-Ethyl-2-[[[[4-(hexadecyloxy)phenoxy]acetyl]amino]-methyl]pyridinium iodide]	7.2 µM and 5.6 µM		
CCCCCCCCCCCCCCOc1ccc(C(=O)NCCc2cccc[n+]2C)cc1 [1-Methyl-2-[2-[[4-(tetradecyloxy)benzoyl]amino]-ethyl]pyridinium iodide]			IC50 ([2]; PAF challenge 1.00E-08 M): 14 µM
CCCCCCCCCCCCCCOc1ccc(CC(=O)NCCc2cccc[n+]2C)cc1 [1-Methyl-2-[2-[[[4-(tetradecyloxy)phenyl]acetyl]-amino]ethyl]pyridinium iodide]	15 µM		
CCCCCCCCCCCCCCOc1ccc(C(=O)N(Cc2cccc[n+]2C)S(C)(=O)=O)cc1 [1-Methyl-2-[[(methylsulfonyl)[4-(tetradecyloxy)-benzoyl]amino]methyl]pyridinium salt with trifluoromethanesulfonic acid (1:1)]		88	
CCCCCCCCCCCCCCOc1ccc(CN(Cc2cccc[n+]2C)S(C)(=O)=O)cc1 [1-Methyl-2-[[(methylsulfonyl)[[4-(tetradecyloxy)-phenyl]methyl]amino]methyl]pyridinium iodide]		55	
CCCCCCCCCCCCCCOc1ccc(C(=O)NCc2cccc[n+]2C)cc1OCCCCCCCCCCCCCC [1-Methyl-2-[[[3,4-bis(tetradecyloxy)benzoyl]amino]-methyl]pyridinium iodide]		0	
CCCCCCCCCCCCCCOc1ccc(CN(C(=O)c2ccc[n+](C)c2)c2ccccc2)cc1 [1-Methyl-3-[[phenyl[[4-(tetradecyloxy)phenyl]methyl]-amino]carbonyl]pyridinium iodide]		69	
CCCCCCCCCCCCCCOc1ccc(CNC(=O)c2cc[n+](C)cc2)cc1 [1-Methyl-4-[[[[4-(tetradecyloxy)phenyl]methyl]amino]-carbonyl]pyridinium iodide]	60 µM		
CCCCCCCCCCCCCCOc1ccc(C(=O)N(Cc2cccc[n+]2C)C(=O)c2ccccc2OC)cc1 [2-[[(2-Methoxybenzoyl)[4-(tetradecyloxy)]benzoyl]-amino]methyl]-1-methylpyridinium iodide]	1.5 µM		% INH (% of inhibition of PAF induced platelet aggregation) ([2]; PAF challenge 5.00E-08 M): 0%
CCCCCCCOc1ccc(C(=O)N(Cc2cccc[n+]2C)C(C)=O)cc1OCCCCCCC [2-[[Acetyl[3,4-bis(heptyloxy)benzoyl]amino]methyl]-1-methylpyridinium iodide]		45	
CCCCCCCCCCCCCCOc1ccc(C(=O)N(Cc2cccc[n+]2C)C(C)=O)cc1OCCCCCCCCCCCCCC [2-[[Acetyl[3,4-bis(tetradecyloxy)benzoyl]amino]-methyl]-1-methylpyridinium iodide]		36	
CCCCCCCCCCCCCCOc1ccc(C(=O)N(Cc2cccc[n+]2C)C(C)=O)cc1C(C)(C)C [2-[[Acetyl[3-(1,1-dimethylethyl)-4-(tetradecyloxy)-benzoyl]amino]methyl]-1-methylpyridinium iodide]	0.0215 µM	60	IC50 ([2]; PAF challenge 1.00E-07 M): 0.0141 µM and 0.036 µM
CCCCCCCCCCCCCCOc1ccc(C(=O)N(Cc2cccc[n+]2CC)C(C)=O)cc1OC.[I-] [2-[[Acetyl[3-methoxy-4-(tetradecyloxy)benzoyl]amino]-methyl]-1-ethylpyridinium iodide]	0.0703 µM and 0.24 µM	29	% INH (% of inhibition of PAF induced platelet aggregation) ([2]; PAF challenge 5.00E-08 M): 95%
CCCCCCCCCCCCCCOc1ccc(C(=O)N(Cc2cccc[n+]2C)C(C)=O)cc1OC [2-[[Acetyl[3-methoxy-4-(tetradecyloxy)benzoyl]amino]-methyl]-1-methylpyridinium iodide]	0.0636 µM	43	
CCCCCCCCCCCCCCOc1ccc(C(=O)N(Cc2cccc[n+]2Cc2ccccc2)C(C)=O)cc1 [2-[[Acetyl[4-(tetradecyloxy)benzoyl]amino]methyl]-1-(phenylmethyl)pyridinium bromide]	300 µM	0	
CCCCCCCCCCCCCCOc1ccc(C(=O)N(Cc2cccc[n+]2C)C(C)=O)cc1.[I-] [2-[[Acetyl[4-(tetradecyloxy)benzoyl]amino]methyl]-1-methylpyridinium iodide]	0.86 µM and 0.7 µM and 0.96 µM and 1.3 µM	27	% INH (% of inhibition of PAF induced platelet aggregation) ([2]; PAF challenge 5.00E-08 M): 0%
CCCCCCCCCCCCCCOc1cc(C(=O)N(Cc2cccc[n+]2C)C(C)=O)ccc1OC [2-[[Acetyl[4-methoxy-3-(tetradecyloxy)benzoyl]-amino]methyl]-1-methylpyridinium iodide]	160 µM	21	
CCCCCCCCCCCCCCOc1ccccc1CN(Cc1cccc[n+]1C)C(C)=O [2-[[Acetyl[[2-(tetradecyloxy)phenyl]methyl]amino]-methyl]-1-methylpyridinium iodide]	43 µM	23	
CCCCCCCCCCCCCCCCOc1ccc(OCC(=O)N(Cc2cccc[n+]2C)C(C)=O)cc1 [2-[[Acetyl[[4-(hexadecyloxy)phenoxy]acetyl]amino]-methyl]-1-methylpyridinium iodide]	280 µM		
CCCCCCCCCCCCCCOc1ccc(CN(Cc2cccc[n+]2CC)C(C)=O)cc1 [2-[[Acetyl[[4-(tetradecyloxy)phenyl]methyl]amino]-methyl]-1-ethylpyridiniumiodide]			IC50 ([2]; PAF challenge 1.00E-07 M): 13 µM
CCCCCCCCCCCCCCOc1ccc(COC(=O)N(Cc2cccc[n+]2C)C(C)=O)cc1 [2-[[Acetyl[[[4-(tetradecyloxyphenyl]methoxy]-carbonyl]amino]methyl]-1-methylpyridinium iodide]		40	
CCCCCCCCCCCCCCOc1ccc(C(=O)N(Cc2ccc[n+](C)c2)C(C)=O)cc1C(C)(C)C [3-[[Acetyl[3-(1,1-dimethylethyl)-4-(tetradecyloxy)-benzoyl]amino]methyl]-1-methylpyridinium iodide]	20 µM		
CCCCCCCCCCCCCCOc1ccc(C(=O)N(Cc2ccc[n+](C)c2)C(C)=O)cc1 [3-[[Acetyl[4-(tetradecyloxy)benzoyl]amino]methyl]-1-methylpyridinium iodide]	6.8 µM		
CCCCCCCCCCCCCCOc1ccc(N(Cc2ccc[n+](C)c2)C(C)=O)cc1 [3-[[Acetyl[4-(tetradecyloxy)phenyl]amino]methyl]-1-methylpyridinium iodide]		7	
CCCCCCCCCCCCCCOc1ccc(CN(Cc2ccc[n+](C)c2)C(C)=O)cc1 [3-[[Acetyl[[4-(tetradecyloxy)phenyl]methyl]amino]-methyl]-1-methylpyridinium iodide]		38	IC50 ([2]; PAF challenge 1.00E-08 M): 14 µM
CCCCCCCCCCCCCCOc1ccc(CN(C(=O)c2ccc[n+](CCC)c2)c2ccccc2)cc1 [3-[[Phenyl[[4-(tetradecyloxy)phenyl]methyl]amino]-carbonyl]-1-propylpyridinium iodide]		64	
CCCCCCCCCCCCCCOc1ccc(CN(Cc2cc[n+](C)cc2)C(C)=O)cc1 [4-[[Acetyl[[4-(tetradecyloxy)phenyl]methyl]amino]-methyl]-1-methylpyridinium iodide]	1 µM		
